The target in one data set is CYP2D6 (Homo sapiens, UniProt P10635). The data set can be described thus: clinical. As to conditions: in vivo, 4 mg.
Data set [1] can be described thus: ABPM study, adverse events. It counts as in vivo, human. As to conditions: 75 mg, 28 days. As for the experimental part: Safety was evaluated by assessment of clinical laboratory tests, physical examinations, and vital signs measurements from office visits at various time points during the study, and by the documentation of AEs.
Safety Set (SAF): All subjects who received at least one dose of double-blind study treatment were included in the SAF. Subjects were included in the treatment group corresponding to the Study Treatment that was actually received. This was the population used to summarize safety analyses collected during clinic visits and correspondence with site staff; summarization of baseline/demographic characteristics also presented for the SAF.

For data set [2], the system named is males and females with OAB. The data set can be described thus: Phase 3 study of vibegron 50 mg and 100 mg, 12 weeks, efficacy. It counts as in vivo, human.
A short description of data set [3]: thorough QT study, single doses of 200 and 400 mg, healthy volunteers. It counts as in vivo, human.

Chain of CYP2D6 (P10635 whole entry): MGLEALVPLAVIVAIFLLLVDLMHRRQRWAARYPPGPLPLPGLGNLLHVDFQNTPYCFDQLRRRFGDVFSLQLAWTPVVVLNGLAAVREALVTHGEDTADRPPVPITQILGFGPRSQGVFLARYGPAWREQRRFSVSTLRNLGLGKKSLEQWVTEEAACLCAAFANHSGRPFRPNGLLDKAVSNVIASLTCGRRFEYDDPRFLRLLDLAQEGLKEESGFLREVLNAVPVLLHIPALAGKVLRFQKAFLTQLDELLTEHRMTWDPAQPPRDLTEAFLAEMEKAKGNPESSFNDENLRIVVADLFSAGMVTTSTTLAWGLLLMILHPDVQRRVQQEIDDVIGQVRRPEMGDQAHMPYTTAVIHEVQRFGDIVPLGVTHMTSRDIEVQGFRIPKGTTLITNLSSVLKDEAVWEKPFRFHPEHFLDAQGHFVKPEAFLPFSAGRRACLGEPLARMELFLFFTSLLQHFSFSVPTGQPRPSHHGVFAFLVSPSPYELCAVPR

Turning to `Cc1ccc(O)c([C@H](CCN(C(C)C)C(C)C)c2ccccc2)c1` [Tolterodine ER, tolterodine, reference compound], at CYP2D6, the exposure AUC(0-t) came to 28.4 ng·h/mL and the half-life was 10 h.

With `O=C(Nc1ccc(C[C@@H]2CC[C@H]([C@H](O)c3ccccc3)N2)cc1)[C@@H]1CCc2nccc(=O)n21` [Vibegron, (6S)-N-[4-[[(2S,5R)−5-[(R)-hydroxy(phenyl)methyl]pyrrolidin−2-yl]methyl]phenyl]−4-oxo−7,8-dihydro−6H-pyrrolo[1,2-a]pyrimidine−6-carboxamide], the “Discontinued the study: Adverse Event, subjects n” value in data set [1] (Randomized N = 106) turned out to be 2. For the same compound, in data set [1] (Safety N = 106), the AECIs is 8 (7.5) n (%), the “AEs Leading to Treatment Discontinuation” value was 3 (2.8) n (%), the “Adverse event: Blood pressure increased” value was 0 n (%) and the “Adverse event: Constipation” value is 2 (1.9) n (%). Also, in data set [1] (Safety N = 106), the “Adverse event: Diarrhea” value was 3 (2.8) n (%), the “Adverse event: Dry mouth” value was 3 (2.8) n (%), the “Adverse event: Fatigue” value is on record as 3 (2.8) n (%) and the “Adverse event: Haematuria” value is 3 (2.8) n (%). Also, in data set [1] (Safety N = 106), the “Adverse event: Headache” value was 4 (3.8) n (%), the “Adverse event: Hypertension” value is on record as 5 (4.7) n (%), the “Adverse event: Hypotension” value is reported as 1 (0.9) n (%) and the “Adverse event: Increased residual urine” value is listed as 0 n (%). In data set [1] (Safety N = 106), the “Adverse event: Nasopharyngitis” value is given as 3 (2.8) n (%), the “Adverse event: Nausea” value is 3 (2.8) n (%), the “Adverse event: Tachycardia” value is listed as 0 n (%) and the “Adverse event: Upper respiratory tract infection” value is reported as 5 (4.7) n (%). For the same compound, in data set [1] (Safety N = 106), the “Adverse event: Urinary retention” value is given as 1 (0.9) n (%), the “Adverse event: Urinary tract infection” value is on record as 3 (2.8) n (%), the Fatal adverse event is listed as 0 n (%) and the “Serious adverse event (SAE)” value is recorded as 1 (0.9) n (%). In addition, in data set [1] (Safety N = 106), the “Treatment emergent Adverse event (AE)” value is listed as 49 (46.2) n (%), the “Treatment-related AECIs” value was 3 (2.8) n (%) and the “Treatment-related SAE by the investigator” value is given as 0 n (%). For the same compound, in data set [2] (vibegron 50 mg once daily), the “Micturitions: LS mean placebo adjusted change from baseline (95% CI) at Week 12” value is reported as −0.86 (−1.12, −0.60); the “Total incontinence episodes: LS mean placebo adjusted change from baseline (95% CI) at Week 12” value is −0.30 (−0.49, −0.12); the “Urge urinary incontinence episodes: LS mean placebo adjusted change from baseline (95% CI) at Week 12” value is reported as −0.27 (−0.44, −0.10); the “Urgency episodes: LS mean placebo adjusted change from baseline (95% CI) at Week 12” value is on record as −0.51 (−0.76, −0.25). In addition, in data set [2] (vibegron 100 mg once daily), the “Micturitions: LS mean placebo adjusted change from baseline (95% CI) at Week 12” value was −0.81 (−1.07, −0.55); the “Total incontinence episodes: LS mean placebo adjusted change from baseline (95% CI) at Week 12” value is −0.43 (−0.61, −0.24); the “Urge urinary incontinence episodes: LS mean placebo adjusted change from baseline (95% CI) at Week 12” value is −0.39 (−0.55, −0.22); the “Urgency episodes: LS mean placebo adjusted change from baseline (95% CI) at Week 12” value is listed as −0.67 (−0.93, −0.42). Moreover, the “effect on QTc or blood pressure in thorough QT study” value in data set [3] (human, in vivo) is “no clinically meaningful effect on QTc or blood pressure”. Besides, in data set [3] (vibegron 200 mg single dose), the “AUC, mean ± SD” value was 2430 ± 974 ng·h/mL; the “Maximum mean placebo corrected change from baseline RR interval” value was -84.36 ms; the “Maximum mean placebo corrected change from baseline diastolic BP” value is 2.42 mmHg; the “Maximum mean placebo corrected change from baseline systolic BP” value came to 2.20 mmHg. In data set [3] (vibegron 400 mg single dose), the “AUC, mean ± SD” value turned out to be 6800 ± 2300 ng·h/mL; the “Maximum mean placebo corrected change from baseline RR interval” value is -162.45 ms; the “Maximum mean placebo corrected change from baseline diastolic BP” value worked out at 3.99 mmHg; the “Maximum mean placebo corrected change from baseline systolic BP” value was found to be 3.97 mmHg.

Usually AUC(0-t) stands for exposure summed from dosing to a finite time, without extrapolation to infinity. One may read the half-life as the time needed for the level to fall by half in the phase considered. A lower half-life goes with rapid decline.

Values taken from patent US20230027066A1 (Urovant Sciences GmbH, priority 2019, published 2023).
